Marks after values point to notes of the source that are not given here.
Key:
[1] = tested on: hamsters fed a diet containing 0.25% cholesterol; experiment: Example 2: five week hamster study, blood lipid levels, 0.25% cholesterol diet, 1% PS; assay type: in vivo, male Golden Syrian hamsters; conditions: BBRCI 100 mg/kg·d and/or PS 1% (w/w)
Description: In this example, a controlled, five week animal study was performed. A total of 48 male Golden Syrian hamsters were randomized into 4 groups of 12 and fed isocaloric diets as follows. Hamster husbandry, living and feeding conditions were similar to that used for Example 1. • Control a semi-synthetic casein-corn starch-sucrose diet that contained 0.25% (w/w) cholesterol • BBRCI control diet containing 100 mg/kg·d of BBRCI • PS control diet containing 1% (w/w) PS • BBRCI+PS control diet containing 100 mg/kg·d BBRCI and 1% (w/w) PS One objective of this example was to determine the effects of each intervention on circulating blood lipids including total cholesterol (T-C), high-density-lipoprotein cholesterol (HDL-C), nonHDL-C (which is indicative of LDL-C levels) and triglyceride (TG) profiles when hamsters were fed a diet containing a higher concentration of cholesterol, for example, 0.25% by weight in the diet. Table 6 summarizes the effect on blood lipid levels (values are means±SD, n=12). Data were analyzed by one-way ANOVA followed by Tukey test if significance was detected. A significant difference was indicated by a p<0.05.

[2] = tested on: rats fed a diet containing 2% cholesterol and 28% fat; experiment: Example 4: six week rat study, blood total cholesterol levels; assay type: in vivo, male Sprague-Dawley rats; conditions: 6 weeks; for T-C: 2% cholesterol 28% fat diet, means±SD, n=10
Description: In this example, a controlled, six week animal study was performed in a different animal model. Six randomized groups of 10 male Sprague-Dawley rats were fed isocaloric diets as follows. […] One objective of this example was to determine the effects of each intervention on plasma cholesterol levels in a different animal model. Table 9 summarizes the effect on blood total cholesterol levels (values are means±SD, n=10).

[3] = 0.25% cholesterol diet, 5 weeks, means±SD, n=12

In the case of `COc1ccc2cc3[n+](cc2c1OC)CCc1cc2c(cc1-3)OCO2` [BBRCI, Berberine chloride], the “HDL-C Concentration” value [1, 3] is reported as 93.1 ± 27.1^ab mg/dl, the “T-C Concentration” value [1, 3] is reported as 264.7 ± 49.8^a mg/dl and the “TG Concentration” value [1, 3] is reported as 549.1 ± 225.3^a mg/dl. The “nonHDL-C Concentration” value ([1]; 0.25% cholesterol diet, 5 weeks, n=12) was 173.5 ± 66.5^a mg/dl, the “HDL-C % difference from Control” value ([1]; Example 2, 5 weeks) was 1.7% and the “HDL-C/nonHDL-C % difference from Control” value ([1]; Example 2, 5 weeks) was 29%. The “T-C % difference from Control” value ([1]; Example 2, 5 weeks) was −7.8%, the “TG % difference from Control” value ([1]; Example 2, 5 weeks) was −0.2% and the “nonHDL-C % difference from Control” value ([1]; Example 2, 5 weeks) was −11.1%. For the same compound, the HDL-C/nonHDL-C ([1]; ratio, 0.25% cholesterol diet, 5 weeks, n=12) was 0.66 ± 0.41^ab, the T-C ([2]; BBRCI 100 mg/kg·d by gavage (BBRCl-1) and/or PS 1% (w/w) in diet) was 102.1 ± 30.6 mg/dL and the T-C ([2]; BBRCI 200 mg/kg·d by gavage (BBRCl-2), alone or with PS 1% (w/w)) was 109.1 ± 26.7 mg/dL. For the same compound, the “T-C % difference from Control” value ([2]; BBRCI 100 mg/kg·d (BBRCl-1) and/or PS 1% (w/w)) was −6.7% and the “T-C % difference from Control” value ([2]; BBRCI 200 mg/kg·d (BBRCl-2), alone or with PS 1% (w/w)) was −0.3%.
